Measured values reported in patent US20260242789A1 (priority 2023, published 2026).
Where a name gives a salt, the structure may show the parent alone. Read-outs that look alike come from different tables or passages of the source.

What was measured:
[1] = target: T1, SAMD9 tRNase:tRNA complex (Homo sapiens, UniProt Q5K651); format: binding
T1 construct: The recombinant SAMD9^134-385 or SAMD9^156-385 protein was expressed and purified from E. coli; SUMO (cleaved yes); 6xHis (cleaved yes); made in house; host or cells: E. coli
T1 sequence (Q5K651 134-385): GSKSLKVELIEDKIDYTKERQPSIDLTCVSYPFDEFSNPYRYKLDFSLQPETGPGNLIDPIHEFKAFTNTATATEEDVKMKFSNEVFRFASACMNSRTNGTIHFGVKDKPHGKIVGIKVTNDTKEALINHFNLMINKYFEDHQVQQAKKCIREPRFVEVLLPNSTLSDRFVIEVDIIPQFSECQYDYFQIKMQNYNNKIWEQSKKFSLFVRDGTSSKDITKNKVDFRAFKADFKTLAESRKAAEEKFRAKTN

[2] = target: T2, SAMD9^134-385 protein (SAMD9 tRNase) (Homo sapiens, UniProt Q5K651); format: biochemical; conditions: at 2×IC50 concentration, two hours of reaction
T2 construct: The recombinant SAMD9^134-385 or SAMD9^156-385 protein was expressed and purified from E. coli; SUMO (cleaved yes); 6xHis (cleaved yes); made in house; host or cells: E. coli
T2 sequence (Q5K651 134-385): T1 sequence (Q5K651 134-385)

[3] = target: T2, SAMD9^134-385 protein (SAMD9 tRNase); experiment: biochemical

Row | Compound | disruption of the SAMD9 tRNase:tRNA complex ([1]; 2:1 molar ratio) | disruption of the SAMD9 tRNase:tRNA complex ([1]; 20:1 molar ratio) | cleavage of yeast tRNA by SAMD9 tRNase [2] | IC50 [3] [nM] | disruption of the SAMD9 tRNase:tRNA complex ([1]; 100:1 molar ratio) | IC50 ([3]; dose response studies, cleavage of Phe17-Fret by SAMD9 tRNase, read-out: IC50) [nM]
1 | Cc1cc(-c2ccc(/N=N/c3ccc4c(S(=O)(=O)O)cc(S(=O)(=O)O)c(N)c4c3O)c(C)c2)ccc1/N=N/c1ccc2c(S(=O)(=O)O)cc(S(=O)(=O)O)c(N)c2c1O [Evans Blue] | disrupted the complex | completely disrupted | blocked | 1200 | – | –
2 | NCCOc1cc(C(=O)Nc2cc(OCCN)c3ccccc3n2)nc(C(=O)Nc2cc(OCCN)c3ccccc3n2)c1 [Pyridostatin TFA] | – | – | partially reduced | 7800 | – | –
3 | Salvianolic acid B | – | minor effect | blocked | – | did not completely disrupt | 3000
